# Source: patent US12350269B2 (Alexion Pharmaceuticals, Inc., priority 2015, dated 2025)
# Key:
# Assay in all cases: DLBCL cell line viability, CellTiter Glo
# Type in all cases: cell-based
# Conditions in all cases: read-out: IC50 of Kinase Inhibitor in CellTiter Glo Assay
# DB = tested on: DB
# Procedure: (§1) Each IC50 value is an average of at least four replicate experiments. Subsequent analysis using a FACS based caspase 3 cleavage detection kit (BD Biosciences) and Edu incorporation were performed.
# LY1 = tested on: LY1
# Procedure: as §1
# DHL6 = tested on: DHL6
# Procedure: as §1
# DHL5 = tested on: DHL5
# Procedure: as §1
# DHL8 = tested on: DHL8
# Procedure: as §1
# DHL10 = tested on: DHL10
# Procedure: as §1
# TOLEDO = tested on: TOLEDO
# Procedure: as §1
# DLCL2 = tested on: DLCL2
# Procedure: as §1
# VAL = tested on: VAL
# Procedure: as §1
# LY7 = tested on: LY7
# Procedure: as §1
# LY10 = tested on: LY10
# Procedure: as §1
# RCK8 = tested on: RCK8
# Procedure: as §1
# LY18 = tested on: LY18
# Procedure: as §1
# U2932 = tested on: U2932
# Procedure: as §1
smiles,measurement,setting,value
CC(C)(C)c1nc2c3cc[nH]c(=O)c3c3cc(F)ccc3c2[nH]1 [Pan-Jak],IC50,DB,21.4 µM
same,IC50,LY1,0.7 µM
same,IC50,DHL6,2.63 µM
same,IC50,DHL5,39 µM
same,IC50,DHL8,28 µM
same,IC50,DHL10,40 µM
same,IC50,TOLEDO,5.9 µM
same,IC50,DLCL2,42 µM
same,IC50,VAL,5.2 µM
same,IC50,LY7,34 µM
same,IC50,LY10,5.1 µM
same,IC50,RCK8,43 µM
same,IC50,LY18,0.8 µM
same,IC50,U2932,3.9 µM
